From patent US11518760B2 (Liverpool School of Tropical Medicine, priority 2017, dated 2022) come the findings set out here.

Where two headings read alike, the source gives them in different places.

This assay deals with C6/36 Aedes albopictus cell line infected with Wolbachia pipientis (Wolbachia strain wAlbB). The assay is described as follows: In vitro insect cell line assay (anti-Wolbachia screen, SYTO 11 high content imaging). The format is cell-based. The note with it: C6/36 Aedes albopictus cells infected with Wolbachia pipientis wAlbB, 7 days incubation, SYTO 11 imaging, read-out: In vitro anti-Wolbachia activity. The gist of the method: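 SYTO 11 staining (15 min), high-content imaging and texture analysis were the read-out on day 7. Before that, C6/36 mosquito cells carrying Wolbachia strain wAlbB were incubated at 26 °C with test compound at 5 μM final, alongside DMSO-only control wells.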

As for `N#CC1CN(c2nc(NCc3cccnc3C(F)(F)F)c3cccnc3n2)C1` [Example 237, 1-(4-(((2-(trifluoromethyl)pyridin-3-yl)methyl)amino)pyrido[2,3-d]pyrimidin-2-yl)azetidine-3-carbonitrile], under “168 h”, the EC50 was in the range of 100 to 1000 nM.
Same read-out and setting: to `CC(Nc1ncnc2c(C#N)csc12)c1ccccc1C(F)(F)F` (centres unmarked) [Example 108, 4-((1-(2-(trifluoromethyl)phenyl)ethyl)amino)thieno[3,2-d]pyrimidine-7-carbonitrile] belongs 1000 to 100000 nM.
Still for that read-out and setting: for `FC(F)OC1CCCN(c2nc(NCc3cccnc3C(F)(F)F)c3cccnc3n2)C1` (centres unmarked) [Example 292, 2-(3-(difluoromethoxy)piperidin-1-yl)-N-((2-(trifluoromethyl)pyridin-3-yl)methyl)pyrido[2,3-d]pyrimidin-4-amine] the value was below 0.01 nM; for `O=C(Nc1ccc(F)cc1)Nc1nc(NCc2cccnc2C(F)(F)F)c2cccnc2n1` [Example 204, 1-(4-fluorophenyl)-3-(4-(((2-(trifluoromethyl)pyridin-3-yl)methyl)amino)pyrido[2,3-d]pyrimidin-2-yl)urea], 10 to 100 nM; for `O=C(Nc1ncnc2ccsc12)c1ccccc1Cl` [Example 40, 2-chloro-N-(thieno[3,2-d]pyrimidin-4-yl)benzamide], 1000 to 100000 nM.
Still for that read-out and setting: to `C[C@@H]1[C@@H](C)OCCN1c1nc(NCc2cccnc2C(F)(F)F)c2cccnc2n1` [Example 270, 2-((2R,3R)-2,3-dimethylmorpholino)-N-((2-(trifluoromethyl)pyridin-3-yl)methyl)pyrido[2,3-d]pyrimidin-4-amine] belongs 1 to 10 nM; to `FC(F)(F)Oc1ccccc1CNc1ncnc2ccsc12` [Example 24, N-(2-(trifluoromethoxy)benzyl)thieno[3,2-d]pyrimidin-4-amine], 100 to 1000 nM.
For `Fc1ccccc1CNc1ncnc2ccsc12` [Example 22, N-(2-fluorobenzyl)thieno[3,2-d]pyrimidin-4-amine], the EC50 (168 h) lay within 1000 to 100000 nM.
Consider `FC(F)(F)c1nc(NCc2ccccc2C(F)(F)F)c2sccc2n1` [Example 56, 2-(trifluoromethyl)-N-(2-(trifluoromethyl)benzyl)thieno(3,2-d]pyrimidin-4-amine], for which, where the note is “168 h”, the EC50 lay within 10 to 100 nM.
The same measure, in the same setting: for `CC(Nc1ncnc2cc(I)sc12)c1ccccc1C(F)(F)F` (centres unmarked) [Example 96, 6-iodo-N-(1-(2-(trifluoromethyl)phenyl)ethyl)thieno[3,2-d]pyrimidin-4-amine] the value was 1000 to 100000 nM; for `FC(F)(F)OC1CCN(c2nc(NCc3cccnc3C(F)(F)F)c3cccnc3n2)CC1` [Example 273, 2-(4-(trifluoromethoxy)piperidin-1-yl)-N-((2-(trifluoromethyl)pyridin-3-yl)methyl)pyrido[2,3-d]pyrimidin-4-amine], below 0.01 nM; for `CC(C)(C)N(Cc1ccccc1C(F)(F)F)c1ncnc2ccsc12` [Example 85], 100 to 1000 nM.
`CN(C)CCNc1nc(NCc2ccccc2C(F)(F)F)c2sccc2n1` [Example 89, N^2-(2-(dimethylamino)ethyl)-N^4-(2-(trifluoromethyl)benzyl)thieno[3,2-d]pyrimidine-2,4-diamine]: where the note is “168 h”, the EC50 fell in the range of 1000 to 100000 nM.
Still for that read-out and setting: to `CC1COCCN1c1nc(NCc2cccnc2C(F)(F)F)c2nccnc2n1` (centres unmarked) [Example 309, 2-(3-methylmorpholino)-N-((2-(trifluoromethyl)pyridin-3-yl)methyl)pteridin-4-amine] belongs 100 to 1000 nM; to `CC(C)Nc1nc(NCc2ccccc2S(C)(=O)=O)c2sccc2n1` [Example 117, N^2-isopropyl-N^4-(2-(methylsuifonyl)benzyl)thieno[3,2-d]pyrimidine-2,4-diamine], 100 to 1000 nM; to `CN1CCN(CCNc2nc(NCc3ccccc3C(F)(F)F)c3sccc3n2)CC1` [Example 92, N^2-(2-(4-methyipiperazin-1-yl)ethyl)-N^4-(2-(trifluoromethyl)benzyl)thieno[3,2-d]pyrimidine-2,4-diamine], 1000 to 100000 nM.
The same measure, in the same setting: to `Cc1ccc(-c2cnc3ncnc(NCc4cccnc4C(F)(F)F)c3c2)cn1` [Example 181] belongs 1000 to 100000 nM; to `CN(Cc1ccc(F)cc1C(F)(F)F)c1ncnc2ccccc12` [Example 75, N-(4-fluoro-2-(trifluoromethyl)benzyl)-N-methylquinazolin-4-amine], 100 to 1000 nM.
Same read-out and setting: for `COc1ccccc1CNc1nc(NC(C)C)nc2ccccc12` [Example 139, N^2-isopropyl-N^4-(2-methoxybenzyl)quinazoline-2,4-diamine] the value was 100 to 1000 nM; for `CS(=O)(=O)C1CCN(c2nc(NCc3cccnc3C(F)(F)F)c3cccnc3n2)CC1` [Example 232, 2-(4-(methylsulfonyl)piperidin-1-yl)-N-((2-(trifluoromethyl)pyridin-3-yl)methyl)pyrido[2,3-d]pyrimidin-4-amine], 100 to 1000 nM.
`C[C@@H]1CO[C@@H](C)CN1c1nc(NCc2cccnc2C(F)(F)F)c2cccnc2n1` [Example 271, 2-((2S,5R)-2,5-dimethylmorpholino)-N-((2-(trifluoromethyl)pyridin-3-yl)methyl)pyrido[2,3-d]pyrimidin-4-amine]: the EC50 (168 h) is 0.01 to 1 nM.
In the case of `Cc1nc(N(C)C(C)c2ccccc2C(F)(F)F)c2sccc2n1` (centres unmarked) [Example 66, N,2-dimethyl-N-(1-(2-(trifluoromethyl)phenyl)ethyl)thieno[3,2-d]pyrimidin-4-amine], the EC50 (168 h) fell in the range of 1 to 10 nM.
Take “2-((3R)-3,5-dimethylmorpholino)-N-(2-(trifluoromethyl)benzyl)pyrido[2,3-d]pyrimidin-4-amine [Example 302]”: the EC50 was below 0.01 nM.
As for `CC(C)Nc1nc(NCc2ccc(C(F)(F)F)nc2)c2ncccc2n1` [Example 125, N^2-isopropyl-N^4-((6-(trifluoromethyl)pyridin-3-yl)methyl)pyrido[3,2-d]pyrimidine-2,4-diamine], where the note is “168 h”, the EC50 is 1000 to 100000 nM.
On the same count and under the same terms, for `FC(F)(F)c1ccccc1CNc1nc(N2CCCC2)nc2ccsc12` [Example 93, 2-(pyrrolidin-1-yl)-N-(2-(trifluoromethyl)benzyl)thieno[3,2-d]pyrimidin-4-amine] the value was 100 to 1000 nM; for `CC1COCCN1c1nc(NCc2ccccc2C(F)(F)F)c2cncnc2n1` (centres unmarked) [Example 307, 2-(3-methylmorpholino)-N-(2-(trifluoromethyl)benzyl)pyrimido[4,5-d]pyrimidin-4-amine], 1000 to 100000 nM; for `CC(C)Nc1nc(NCc2ccccc2F)c2sccc2n1` [Example 11], 100 to 1000 nM.
The same measure, in the same setting: for `CC(C)Nc1nc(N2CCOCC2c2ccccc2C(F)(F)F)c2cccnc2n1` (centres unmarked) [Example 187, N-isopropyl-4-(3-(2-(trifluoromethyl)phenyl)morpholino)pyrido[2,3-d]pyrimidin-2-amine] the value was 1000 to 100000 nM.
As for `CC1COCCN1c1nc(NCc2cccnc2C(F)(F)F)c2cccnc2n1` (centres unmarked) [Example 193, 2-(3-methylmorpholino)-N-((2-(trifluoromethyl)pyridin-3-yl)methyl)pyrido[2,3-d]pyrimidin-4-amine], the EC50 (168 h) is 1 to 10 nM.
Still for that read-out and setting: for `CC(c1ccccc1C(F)(F)F)N(C)c1nc(C#N)nc2ccsc12` (centres unmarked) [Example 74, 4-(methyl(1-(2-(trifluoromethyl)phenyl)ethyl)amino)thieno[3,2-d]pyrimidine-2-carbonitrile] the value was 1000 to 100000 nM.
Take `O=C(Nc1nc(NCc2cccnc2C(F)(F)F)c2cccnc2n1)Nc1ccccc1F` [Example 206, 1-(2-fluorophenyl)-3-(4-(((2-(trifluoromethyl)pyridin-3-yl)methyl)amino)pyrido[2,3-d]pyrimidin-2-yl)urea]: the EC50 (168 h) lay within 100 to 1000 nM.
Same read-out and setting: for `CC(C)Nc1nc(NCc2ccccc2)c2sccc2n1` [Example 12, N^4-benzyl-N^2-isopropylthieno[3,2-d]pyrimidine-2,4-diamine] the value was 1000 to 100000 nM.
Still for that read-out and setting: for `CC(C)(C)Nc1ncnc2ccsc12` [Example 78] the value was 1000 to 100000 nM; for `CC(Nc1ncnc2cc(Cl)sc12)c1ccccc1C(F)(F)F` (centres unmarked) [Example 101], 1000 to 100000 nM; for `N#CC1CCN(c2nc(NCc3cccnc3C(F)(F)F)c3cccnc3n2)CC1` [Example 234, 1-(4-(((2-(trifluoromethyl)pyridin-3-yl)methyl)amino)pyrido[2,3-d]pyrimidin-2-yl)piperidine-4-carbonitrile], 1 to 10 nM.
For `CN(c1nc(NCc2cccnc2C(F)(F)F)c2cccnc2n1)C1CC1` [Example 175, N^2-cyclopropyl-N^2-methyl-N^4-((2-(trifluoromethyl)pyridin-3-yl)methyl)pyrido[2,3-d]pyrimidine-2,4-diamine], the EC50 (168 h) is 1 to 10 nM.
Take `CC(C)Nc1nc(NCc2ccc(S(C)(=O)=O)cc2)c2sccc2n1` [Example 118, N^2-isopropyl-N^4-(4-(methylsuifonyl)benzyl)thieno[3,2-d]pyrimidine-2,4-diamine]: the EC50 (168 h) fell in the range of 1000 to 100000 nM.
Take `CC1COCCN1c1nc(NCc2cccnc2C(F)(F)F)c2cc(F)cnc2n1` (centres unmarked) [Example 303, 6-fluoro-2-(3-methylmorpholino)-N-((2-(trifluoromethyl)pyridin-3-yl)methyl)pyrido[2,3-d]pyrimidin-4-amine]: under “168 h”, the EC50 fell in the range of 100 to 1000 nM.
Regarding `FC(F)(F)c1ncccc1CNc1nc(NC2CC2)nc2ncccc12` [Example 159, N^2-cyclopropyl-N^4-((2-(trifluoromethyl)pyridin-3-yl)methyl)pyrido[2,3-d]pyrimidine-2,4-diamine], the EC50 (168 h) is 1 to 10 nM.
On the same count and under the same terms, to `FC(F)(F)c1ncccc1CNc1ncnc2ccsc12` [Example 103, N-((2-(trifluoromethyl)pyridin-3-yl)methyl)thieno[3,2-d]pyrimidin-4-amine] belongs 10 to 100 nM; to `FC(F)(F)c1ncccc1CNc1nc(N2CCCC2)nc2ncccc12` [Example 174, 2-(pyrrolidin-1-yl)-N-((2-(trifluoromethyl)pyridin-3-yl)methyl)pyrido[2,3-d]pyrimidin-4-amine], 0.01 to 1 nM.
